Measured values reported in patent publication US20170050957A1, “4-AMINO-6-(HETEROCYCLIC)PICOLINATES AND 6-AMINO-2-(HETEROCYCLIC)PYRIMIDINE-4-CARBOXYLATES AND THEIR USE AS HERBICIDES” (Dow AgroSciences LLC, priority 2013, published 2017).

Tests used:
Format in all cases: in vivo
[1] = test system: ivyleaf morningglory (Ipomoea hederecea); test: Post-emergent Test I herbicidal activity
[2] = test system: barnyardgrass (Echinochloa crs-galli); test: Pre-emergent Test I herbicidal activity
Experimental: (§1) Pre-emergent Test I Seeds of test species were planted into round plastic pots (5-inch diameter) containing sandy loam soil. After planting, all pots were sub-irrigated 16 h prior to compound application. Compounds were dissolved in a 97:3 v/v (volume/volume) mixture of acetone and dimethyl sulfoxide (DMSO) and diluted to the appropriate concentration in a final application solution containing water, acetone, isopropanol, DMSO and Agri-dex (crop oil concentrate) in a 59:23:15:1.0:1.5 v/v ratio and 0.02% w/v (weight/volume) of Triton X-155 to obtain the spray solution containing the highest application rate. The high application rate was serial diluted with the above application solution to provide delivery of the compound at rates 1/2×, 1/4× and 1/8× of the highest rate (equivalent to 4.0, 2.0, 1.0, and 0.5 kg/ha, respectively). Formulated compound (2.7 mL) was applied pipetted evenly over the soil surface followed by incorporation with water (15 mL). Following treatment, pots were returned to the greenhouse for the duration of the experiment. The greenhouse was programmed for an approximate 15 h photoperiod which was maintained at about 23-29° C. during the day and 22-28° C. during the night. Nutrients and water were added on a regular basis through surface irrigation and supplemental lighting was provided with overhead metal halide 1000-Watt lamps as necessary. Herbicidal effect ratings were obtained 14 days after treatment. All evaluations were made relative to appropriate controls on a scale of 0 to 100 where 0 represents no herbicidal effect and 100 represents plant death or lack of emergence from the soil.

[3] = test system: ivyleaf morningglory (Ipomoea hederecea); test: Pre-emergent Test I herbicidal activity
Experimental: as §1

[4] = test system: sunflower (Helianthus annuus); test: Pre-emergent Test I herbicidal activity
Experimental: as §1

[5] = test system: wild oats (Avena fatua); test: Pre-emergent Test I herbicidal activity
Experimental: as §1

SMILES | Visual Growth Reduction (%) 10 Days After Application IPOHE ([1]; 3.96 Kg ai/ha) | Visual Growth Reduction (%) 14 Days After Application, ECHCG ([2]; 3.96 Kg ai/ha) | Visual Growth Reduction (%) 14 Days After Application IPOHE ([3]; 3.96 Kg ai/ha) | Visual Growth Reduction (%) 14 Days After Application HELAN ([4]; 3.96 Kg ai/ha) | Visual Growth Reduction (%) 14 Days After Application AVEFA ([5]; 3.96 Kg ai/ha) | Visual Growth Reduction (%) 10 Days After Application IPOHE ([1]; 4 Kg ai/ha) | Visual Growth Reduction (%) 14 Days After Application, ECHCG ([2]; 4 Kg ai/ha) | Visual Growth Reduction (%) 14 Days After Application IPOHE ([3]; 4 Kg ai/ha) | Visual Growth Reduction (%) 14 Days After Application HELAN ([4]; 4 Kg ai/ha) | Visual Growth Reduction (%) 14 Days After Application AVEFA ([5]; 4 Kg ai/ha)
COC(=O)c1nc(-c2ccc3ccn(C)c3c2)c(F)c(N)c1Cl [Compound 1.10] | F (30-44) | F (30-44) | G (0-29) | G (0-29) | G (0-29) | – | – | – | – | –
COC(=O)c1nc(-c2ccc3sccc3c2)cc(N)c1Cl [Compound 3.05] | – | – | – | – | – | B (85-94) | A (95-100) | A (95-100) | F (30-44) | F (30-44)
Nc1c(F)c(-c2cccc3cc[nH]c23)nc(C(=O)O)c1Cl [Compound 1.48] | – | – | – | – | – | – | G (0-29) | D (60-74) | C (75-84) | G (0-29)
